# Experimental data taken from patent publication US8466164B2.
# Tests used:
# SaOS-2 cells = assay: MTT cell viability assay on SaOS-2; conditions: SaOS-2, MTT, control = 100%, mean ± SD; for CV (%) after 24 h (cellular viability with respect to control): 24 h treatment; for CV (%) after 48 h (cellular viability with respect to control): 48 h treatment, 25 μM
# recombinant human Src = recombinant human Src (Homo sapiens, UniProt P12931); assay: cell-free Src enzymatic assay; format: biochemical; conditions: calculated from ID50; triplicate, mean values; read-out: Ki toward recombinant human Src
# Chain of recombinant human Src (P12931 whole entry): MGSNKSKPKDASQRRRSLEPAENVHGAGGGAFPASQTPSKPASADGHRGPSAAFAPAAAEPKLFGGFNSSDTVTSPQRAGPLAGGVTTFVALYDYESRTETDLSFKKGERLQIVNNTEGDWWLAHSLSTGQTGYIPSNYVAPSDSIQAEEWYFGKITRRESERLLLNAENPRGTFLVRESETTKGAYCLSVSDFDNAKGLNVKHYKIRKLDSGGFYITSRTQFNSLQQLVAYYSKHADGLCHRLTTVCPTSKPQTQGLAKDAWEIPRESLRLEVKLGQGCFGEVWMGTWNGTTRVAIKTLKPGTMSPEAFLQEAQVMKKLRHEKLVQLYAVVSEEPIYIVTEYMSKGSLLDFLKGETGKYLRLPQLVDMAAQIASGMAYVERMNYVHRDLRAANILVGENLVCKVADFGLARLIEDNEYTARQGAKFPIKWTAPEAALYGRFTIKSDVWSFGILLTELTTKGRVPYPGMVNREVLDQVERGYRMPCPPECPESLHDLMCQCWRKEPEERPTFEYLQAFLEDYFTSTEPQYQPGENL
SMILES,melting point [°C],CV (%) after 24 h (cellular viability with respect to control) (SaOS-2 cells) [%],CV (%) after 48 h (cellular viability with respect to control) (SaOS-2 cells) [%],Ki (recombinant human Src) [nM]
CCSc1nc(NCCc2ccccc2)c2cnn(CC(Cl)c3ccccc3)c2n1 (centres unmarked) [S1-72],99 to 100,107.3 ± 3.5,22.2 ± 1.3,
Clc1cccc(Nc2ncnc3c2cnn3CC(Cl)c2ccccc2)c1 (centres unmarked) [S-17],,104.1 ±0.4,101.3 ± 1.5,
CSc1nc(NCCc2cccc(F)c2)c2cnn(CC(Cl)c3ccccc3)c2n1 (centres unmarked) [SI-56],,101.1 ± 1.1,100.8 ± 2.1,
CSc1nc(NCCc2ccc(Cl)cc2)c2cnn(CC(Cl)c3ccccc3)c2n1 (centres unmarked) [SI-57],,85.2 ± 0.7,75.4 ± 1.3,
CSc1nc(NCCc2cccc(Cl)c2)c2cnn(CC(Cl)c3ccccc3)c2n1 (centres unmarked) [SI-58],122 to 123,80.6 ± 0.7,39.3 ± 2.0,
CSc1nc(NCCc2ccccc2Cl)c2cnn(CC(Cl)c3ccccc3)c2n1 (centres unmarked) [SI-59],99 to 100,102.9 ± 1.3,100.5 ± 0.5,
CSc1nc(NCCc2ccc(C)cc2)c2cnn(CC(Cl)c3ccccc3)c2n1 (centres unmarked) [SI-60],99 to 100,101.9 ± 1.9,96.3 ± 1.1,
COc1ccc(CCNc2nc(SC)nc3c2cnn3CC(Cl)c2ccccc2)cc1 (centres unmarked) [SI-61],60 to 61,101.0 ± 3.0,49.8 ± 2.1,
CSc1nc(NCc2ccccc2)c2cnn(CC(Cl)c3ccc(F)cc3)c2n1 (centres unmarked) [SI-65],152 to 153,62.7 ± 0.7,44.4 ± 2.5,
CSc1nc(NCc2ccccc2)c2cnn(CC(Cl)c3ccc(Cl)cc3)c2n1 (centres unmarked) [SI-70],130 to 131,52.2 ± 2.4,24.4 ± 2.5,
CSc1nc(NCCc2ccccc2)c2cnn(CC(Cl)c3ccc(Cl)cc3)c2n1 (centres unmarked) [SI-71],127 to 129,99.9 ± 0.9,89.4 ± 2.3,
CSc1nc(NCc2ccc(F)cc2)c2cnn(CC(Cl)c3ccccc3)c2n1 (centres unmarked) [SI-84],136 to 137,102.1 ± 1.4,99.2 ± 1.0,
CSc1nc(NCc2cccc(F)c2)c2cnn(CC(Cl)c3ccccc3)c2n1 (centres unmarked) [SI-85],113 to 114,106.2 ± 3.0,71.3 ± 2.1,
CSc1nc(NCc2ccccc2F)c2cnn(CC(Cl)c3ccccc3)c2n1 (centres unmarked) [SI-86],,104.1 ± 1.3,99.7 ± 0.4,
CSc1nc(NCc2ccc(Cl)cc2)c2cnn(CC(Cl)c3ccccc3)c2n1 (centres unmarked) [SI-87],126 to 127,113.4 ± 1.5,54.9 ± 2.4,
CSc1nc(NCc2ccccc2Cl)c2cnn(CC(Cl)c3ccccc3)c2n1 (centres unmarked) [SI-88],158 to 159,101.7 ± 0.9,102.1 ± 1.2,
CSc1nc(Nc2cccc(F)c2)c2cnn(CC(Cl)c3ccccc3)c2n1 (centres unmarked) [SI-90],,94.8 ± 2.7,84.3 ± 1.5,
CSc1nc(Nc2cccc(Br)c2)c2cnn(CC(Cl)c3ccccc3)c2n1 (centres unmarked) [SI-91],,100.1 ± 1.1,84.7 ± 0.3,1800
CCSc1nc(Nc2cccc(Cl)c2)c2cnn(CC(Cl)c3ccccc3)c2n1 (centres unmarked) [SI-96],,76.5 ± 1.9,44.3 ± 1.8,500
CCCSc1nc(Nc2cccc(Cl)c2)c2cnn(CC(Cl)c3ccccc3)c2n1 (centres unmarked) [SI-101],,77.8 ± 3.0,6.4 ± 1.9,
CSc1nc(Nc2ccccc2)c2cnn(CC(Cl)c3ccccc3)c2n1 (centres unmarked) [SI-118],,100.1 ± 1.2,94.4 ± 0.7,
CSc1nc(Nc2cccc(Br)c2)c2cnn(CC(Cl)c3ccc(F)cc3)c2n1 (centres unmarked) [SI-128],,63.1 ± 1.1,55.4 ± 2.0,
Clc1cccc(Nc2nc(SC3CCCCC3)nc3c2cnn3CC(Cl)c2ccccc2)c1 (centres unmarked) [SI-153],,,,700
